Assay [1] deals with T1, human recombinant serotonin (5-Hydroxytryptamine) 5-HT2C receptor (Homo sapiens, UniProt P28335).
T1 construct: expressed in transfected cells; host or cells: CHO-K1 cells
T1 sequence (P28335 33-458): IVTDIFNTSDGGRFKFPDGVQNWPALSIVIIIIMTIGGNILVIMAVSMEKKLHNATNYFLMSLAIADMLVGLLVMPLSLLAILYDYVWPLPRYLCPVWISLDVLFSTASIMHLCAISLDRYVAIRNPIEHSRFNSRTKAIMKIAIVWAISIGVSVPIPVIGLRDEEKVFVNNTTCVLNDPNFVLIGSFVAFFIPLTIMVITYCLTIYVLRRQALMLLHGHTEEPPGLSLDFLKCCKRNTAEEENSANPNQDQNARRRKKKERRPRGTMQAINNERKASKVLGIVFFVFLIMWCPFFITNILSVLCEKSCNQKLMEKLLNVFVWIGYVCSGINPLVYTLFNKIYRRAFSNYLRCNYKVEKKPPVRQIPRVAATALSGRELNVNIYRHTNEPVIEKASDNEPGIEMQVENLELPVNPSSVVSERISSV
As to the kind of experiment: Serotonin 5-HT2C radioligand binding ([3H]Mesulergine). To be noted: compound at 1 μM; read-out: Serotonin (1 μM) 5-HT2C, percent inhibition of specific binding. A digest of the protocol: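 Membranes from CHO-K1 cells expressing human 5-HT2C, incubated with 1 nM [3H]mesulergine for 60 min at 25 °C in 50 mM Tris-HCl pH 7.4 with ascorbic acid and pargyline.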

Assay [2] has as its target T2, human recombinant adrenergic α2B receptor (Homo sapiens, UniProt P18089).
T2 construct: expressed in transfected cells; host or cells: CHO-K1 cells
T2 sequence (P18089 1-450): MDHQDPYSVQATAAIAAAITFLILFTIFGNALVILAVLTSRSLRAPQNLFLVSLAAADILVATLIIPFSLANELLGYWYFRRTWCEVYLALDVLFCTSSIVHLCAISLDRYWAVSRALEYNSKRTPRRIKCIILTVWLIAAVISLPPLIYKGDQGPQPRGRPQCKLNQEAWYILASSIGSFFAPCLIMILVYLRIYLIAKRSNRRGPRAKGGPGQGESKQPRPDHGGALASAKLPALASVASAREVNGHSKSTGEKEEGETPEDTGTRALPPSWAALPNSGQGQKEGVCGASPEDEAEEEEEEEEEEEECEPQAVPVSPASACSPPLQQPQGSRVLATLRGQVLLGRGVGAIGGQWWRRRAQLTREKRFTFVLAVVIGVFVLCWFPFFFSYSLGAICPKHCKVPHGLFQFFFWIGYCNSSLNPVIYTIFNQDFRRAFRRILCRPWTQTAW
Briefly: Adrenergic alpha2B radioligand binding ([3H]Rauwolscine). To be noted: compound at 1 μM; read-out: Adrenergic (1 μM) α2B, percent inhibition of specific binding. How it is done:
To evaluate in radioligand binding assays the activity of compounds of the invention, human recombinant adrenergic α2B receptor expressed in Chinese hamster ovary (CHO-K1) cells (Uhlen S et al. Eur J. Pharmacol. 343(1):93, 1998) in a modified Tris-HCl buffer (50 mM Tris-HCl, pH 7.4, 12.5 mM MgCl2, 1 mM EDTA, 0.2% BSA) was used. Compounds of the invention were incubated with 2.5 nM [^3H]Rauwolscine for 60 min. at 25° C. Non-specific binding was estimated in the presence of 10 μM Prozosin. Receptor proteins were filtered and washed, the filters were then counted to determine [^3H]Rauwolscine specifically bound. Compounds were screened at 1 μM or lower, using 1% DMSO as vehicle. Biochemical assay results are presented as the percent inhibition of specific binding in Table 5.

Assay [3] concerns the target T3, human recombinant histamine H1 receptor (Homo sapiens, UniProt P35367).
T3 construct: expressed in transfected cells; host or cells: CHO cells
Briefly: Histamine H1 radioligand binding ([3H]Pyrilamine). As to conditions: compound at 1 μM; read-out: Histamine Binding (1 μM) H1, percent inhibition of specific binding. Summed up:
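Membranes from CHO cells expressing the receptor were incubated with compound and 1.2 nM [3H]pyrilamine for 180 min at 25 °C in 50 mM Tris-HCl pH 7.4 with MgCl2, NaCl and sucrose; 1 μM pyrilamine defined non-specific binding. Filter-bound radioactivity was counted.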

Assay [4] concerns the target T4, human recombinant serotonin (5-Hydroxytryptamine) 5-HT6 receptor (Homo sapiens, UniProt P50406).
T4 construct: expressed in transfected cells; host or cells: human HeLa cells
As to the kind of experiment: Serotonin 5-HT6 radioligand binding ([3H]LSD). To be noted: compound at 1 μM; read-out: Serotonin (1 μM) 5-HT6, percent inhibition of specific binding. A digest of the protocol:
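Human recombinant 5-HT6 receptor from HeLa cells incubated with 1.5 nM [3H]LSD for 120 min at 37° C in 50 mM Tris-HCl pH 7.4, 150 mM NaCl, 2 mM ascorbic acid, 0.001% BSA. Nonspecific binding defined with 5 μM serotonin; bound ligand counted after filtration.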

T3 sequence (P35367 whole entry): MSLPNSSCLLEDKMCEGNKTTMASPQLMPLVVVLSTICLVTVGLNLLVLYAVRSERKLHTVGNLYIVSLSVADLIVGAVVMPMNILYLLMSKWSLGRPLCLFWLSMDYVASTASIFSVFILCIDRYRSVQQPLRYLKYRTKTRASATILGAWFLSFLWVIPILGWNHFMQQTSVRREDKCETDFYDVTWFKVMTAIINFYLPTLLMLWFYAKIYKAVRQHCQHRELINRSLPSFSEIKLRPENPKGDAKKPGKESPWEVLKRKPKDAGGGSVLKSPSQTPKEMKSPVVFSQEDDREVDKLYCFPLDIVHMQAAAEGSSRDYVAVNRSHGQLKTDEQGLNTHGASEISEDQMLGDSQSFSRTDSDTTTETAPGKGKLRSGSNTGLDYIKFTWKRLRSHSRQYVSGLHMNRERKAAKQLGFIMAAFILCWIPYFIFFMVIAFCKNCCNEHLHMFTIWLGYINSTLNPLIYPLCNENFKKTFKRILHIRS
T4 sequence (P50406 whole entry): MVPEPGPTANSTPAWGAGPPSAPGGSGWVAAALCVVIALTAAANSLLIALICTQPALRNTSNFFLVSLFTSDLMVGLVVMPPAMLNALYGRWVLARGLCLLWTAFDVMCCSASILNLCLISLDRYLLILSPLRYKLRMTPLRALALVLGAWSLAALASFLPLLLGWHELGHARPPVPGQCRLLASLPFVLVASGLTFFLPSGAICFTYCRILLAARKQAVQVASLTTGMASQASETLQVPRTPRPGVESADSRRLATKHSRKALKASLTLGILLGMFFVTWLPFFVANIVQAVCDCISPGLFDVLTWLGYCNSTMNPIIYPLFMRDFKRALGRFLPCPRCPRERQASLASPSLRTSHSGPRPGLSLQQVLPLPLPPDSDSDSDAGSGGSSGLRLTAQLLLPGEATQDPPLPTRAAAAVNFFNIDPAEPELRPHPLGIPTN

As usually defined, the inhibition is the change of the read-out against control, counted positive when it falls. Regarding `CN1CCc2c(n(CCc3cncc(Cl)c3)c3ccc(Cl)cc23)CC1` [Compound No. 10, 9-chloro-6-(2-(5-chloropyridin-3-yl)ethyl)-1,2,3,4,5,6-hexahydro-3-methylazepino[4,5-b]indole], the inhibition at 1 µM in assay [1] was determined as 92%; in assay [2] it was 101%; in assay [3] it was 101%; in assay [4], 97%.

With `CN1CCc2c(n(CCc3ccccc3Cl)c3ccc(Cl)cc23)CC1` [Compound No. 29, 6-(2-chlorophenethyl)-9-chloro-1,2,3,4,5,6-hexahydro-3-methylazepino[4,5-b]indole], the inhibition at 1 µM was 101% in assay [1], 101% in assay [2], 98% in assay [3] and 103% in assay [4].

For `COc1ccc(C(O)Cn2c3c(c4cc(Cl)ccc42)CCN(C)CC3)cc1` (centres unmarked) [Compound No. 47, 2-(9-chloro-2,3,4,5-tetrahydro-3-methylazepino[4,5-b]indol-6(1H)-yl)-1-(4-methoxyphenyl)ethanol], the inhibition at 1 µM is 98% in assay [1], 105% in assay [2], 100% in assay [3] and 77% in assay [4].

In the case of `COc1ccc(/C=C/n2c3c(c4cc(C)ccc42)CCN(C)CC3)c(F)c1` [Compound No. 230, (E)-6-(2-fluoro-4-methoxystyryl)-3,9-dimethyl-1,2,3,4,5,6-hexahydroazepino[4,5-b]indole], the inhibition at 1 µM in assay [1] is 96%; in assay [2] it was 99%; in assay [3] it was 95%; in assay [4] it was 100%.

`CN1CCc2c(n(CCc3ccccc3)c3ccc(Cl)cc23)CC1` [Compound No. 56, 9-chloro-1,2,3,4,5,6-hexahydro-3-methyl-6-phenethylazepino[4,5-b]indole]: the inhibition at 1 µM in assay [1] is 95%; in assay [2], 91%; in assay [3] it was 105%; in assay [4], 104%.

`Cc1ccc2c(c1)c1c(n2CC(O)c2ccc(F)cc2)CCN(C)CC1` (centres unmarked) [Compound No. 52, 1-(4-fluorophenyl)-2-(2,3,4,5-tetrahydro-3,9-dimethylazepino[4,5-b]indol-6(1H)-yl)ethanol]: the inhibition at 1 µM in assay [1] is 96%; in assay [2], 103%; in assay [3] it was 96%; in assay [4], 84%.

On to `COc1ccc(C(O)Cn2c3c(c4cc(Cl)ccc42)CCN(C)CC3)c(F)c1` (centres unmarked) [Compound No. 49, 2-(9-chloro-2,3,4,5-tetrahydro-3-methylazepino[4,5-b]indol-6(1H)-yl)-1-(2-fluoro-4-methoxyphenyl) ethanol], for which the inhibition at 1 µM in assay [1] is 98%; in assay [2], 106%; in assay [3] it was 94%; in assay [4], 88%.

On to `Cc1ccc2c(c1)c1c(n2CC(=O)N2CCOCC2)CCN(C)CC1` [Compound No. 38, 2-(2,3,4,5-tetrahydro-3,9-dimethylazepino[4,5-b]indol-6(1H)-yl)-1-morpholinoethanone], for which the inhibition at 1 µM in assay [1] was found to be 98%; in assay [2], 83%; in assay [3], 83%; in assay [4] it was 41%.

For the compound `CN1CCc2c(n(CCc3ccc(C(=O)O)nc3)c3ccc(Cl)cc23)CC1` [Compound No. 21, 5-(2-(9-chloro-2,3,4,5-tetrahydro-3-methylazepino[4,5-b]indol-6(1H)-yl)ethyl)pyridine-2-carboxylic acid], the inhibition at 1 µM in assay [1] was 29%; in assay [2], 6%; in assay [3], 96%; in assay [4], 30%.

On to `CN1CCc2c(n(CC(=O)OCc3ccccc3)c3ccc(Cl)cc23)CC1` [Compound No. 75, Benzyl-2-(9-chloro-2,3,4,5-tetrahydro-3-methylazepino[4,5-b]indol-6(1H)-yl)acetate], for which the inhibition at 1 µM is 13% in assay [1], 21% in assay [2], 20% in assay [3] and -2% in assay [4].

On to `CN1CCc2c(n(CCc3ccccn3)c3ccc(Cl)cc23)CC1` [Compound No. 8, 9-chloro-1,2,3,4,5,6-hexahydro-3-methyl-6-(2-(pyridin-2-yl)ethyl)azepino[4,5-b]indole], for which the inhibition at 1 µM stood at 95% in assay [1], 103% in assay [2], 97% in assay [3] and 100% in assay [4].

Turning to `Cc1ccc2c(c1)c1c(n2CC(O)c2ccccc2)CCN(C)CC1` (centres unmarked) [Compound No. 25, 2-(2,3,4,5-tetrahydro-3,9-dimethylazepino[4,5-b]indol-6(1H)-yl)-1-phenylethanol], the inhibition at 1 µM in assay [1] worked out at 94%; in assay [2], 104%; in assay [3], 91%; in assay [4] it was 93%.

On to `CN1CCc2c(n(CCc3ccc(Cl)cc3)c3ccc(Cl)cc23)CC1` [Compound No. 30, 6-(4-chlorophenethyl)-9-chloro-1,2,3,4,5,6-hexahydro-3-methylazepino[4,5-b]indole], for which the inhibition at 1 µM is 98% in assay [1], 100% in assay [2], 102% in assay [3] and 86% in assay [4].

Regarding `CN1CCc2c(n(CC(C)(O)c3ccc(Cl)cc3)c3ccc(Cl)cc23)CC1` (centres unmarked) [Compound No. 12, 1-(9-chloro-2,3,4,5-tetrahydro-3-methylazepino[4,5-b]indol-6(1H)-yl)-2-(4-chlorophenyl)propan-2-ol], the inhibition at 1 µM in assay [1] turned out to be 92%; in assay [2], 103%; in assay [3], 99%; in assay [4] it was 83%.

Consider `C=C(Cn1c2c(c3cc(Cl)ccc31)CCN(C)CC2)c1ccc(Cl)cc1` [Compound No. 35, 9-chloro-6-(2-(4-chlorophenyl)allyl)-3-methyl-1,2,3,4,5,6-hexahydroazepino[4,5-b]indole], for which the inhibition at 1 µM came out at 91% in assay [1], 112% in assay [2], 100% in assay [3] and 102% in assay [4].

Take `CN1CCc2c(n(C#Cc3ccc(Cl)cc3)c3ccc(Cl)cc23)CC1` [Compound No. 282, 9-chloro-6-((4-chlorophenyl)ethynyl)-3-methyl-1,2,3,4,5,6-hexahydroazepino[4,5-b]indole]: the inhibition at 1 µM turned out to be 103% in assay [1], 102% in assay [2], 99% in assay [3] and 71% in assay [4].

`Cc1ccc2c(c1)c1c(n2CCc2ccc(C(=O)O)nc2)CCN(C)CC1` [Compound No. 11, 5-(2-(2,3,4,5-tetrahydro-3,9-dimethylazepino[4,5-b]indol-6(1H)-yl)ethyl)pyridine-2-carboxylic acid]: the inhibition at 1 µM in assay [1] came to 34%; in assay [2], 3%; in assay [3], 97%; in assay [4], 4%.

The values are drawn from patent US9481676B2, “Azepino[4,5-B]indoles and methods of use” (Medivation Technologies, Inc., priority 2008, dated 2016).
